This passage reports IC50 results from US5936097A, “4,9-ethano-benzo(F)isoindole derivatives as farnesyl transferase inhibitors” (Rhone-Poulenc Rorer, S.A., priority 1995, dated 1999).

One test deals with T1, human farnesyl transferase (Homo sapiens, UniProt P49354+P49356).
T1 construct: human farnesyl transferase purified from THP1 cell cultures; endogenous in cells; host or cells: THP1 cell cultures (enzyme purified from the cells)
The test is described as follows: inhibition of farnesyl transferase ((3H) farnesyl transfer from (3H) FPP to p21 H-ras). It is filed as biochemical.
Conditions: not given
The method, then:
Farnesyl transferase activity is determined by the amount of (^3 H) farnesyl transferred from (^3 H) farnesylpyrophosphate [(^3 H) FPP] to the p21 H-ras protein. The standard reaction mixture is composed, for a final volume of […], of 50 mM Tris-HCl, 5 mM MgCl2, 5 mM dithiotreitol, 0.2% octyl b-D-glucopyranoside, 200 picomol p21 H-ras, 4.5 picomol (^3 H) FPP (activity 61000 dpm/picomol).
Reaction is initiated by adding approximately 5 ng of human farnesyl transferase purified from THP1 cell cultures. After incubation for 20 minutes at 37° C. in a microtitration plate containing 96 1-cm^3 wells per plate (Titer Plate®, Beckman), the reaction is stopped by adding 0.4 cm^3 of 0.1% SDS in methanol at 0° C. The mixture is then treated with 0.4 cm^3 of 30% trichloroacetic® acid (TCA) in methanol. The plates are left in ice for 1 hour. The precipitated contents are then retained on Filtermat®, Pharmacia), glass® fibre membranes with the filtration unit (Combi Cell Harvester®, Skatron), and rinsed with 6% trichloroacetic acid in distilled water. The membranes are dried in a microwave oven, then impregnated with scintillation medium by melting of Meltilex® (Pharmacia) under hot air, and lastly counted in cpm in a b-Plate counter® (LKB). Each test is repeated 3 times.
The unit of activity is defined as 1 picomole of (^3 H) FPP transferred to p21 H-ras in 20 minutes.
The percentage inhibition values are obtained by comparison of the tests with and without inhibitor after deduction of blanks, the IC50 values being measured on the basis of the inhibitions obtained with 9 different concentrations using Enzfitter® or Grafit® software.
With `COc1ccccc1NC(=O)N1C[C@@H]2[C@]3(c4ccccc4)CC[C@@H](c4ccccc43)[C@]2(C(=O)O)C1` (relative stereo) [Example 66, (3aRS,4SR,9SR,9aRS)-4,9-Ethano-2-(2-methoxyphenyl)aminocarbonyl-9-phenyl-2,3,3a,4,9,9a-hexahydro-1H-benzo[f]isoindole-3a-carboxylic acid], the midpoint of inhibition, the IC50, lay at 9200 nM.

`CSc1ccccc1CC(=O)N1CC2C3(c4ccccc4)CCC(c4ccccc43)C2(C(=O)O)C1` (single isomer, unassigned) [Example 31] yielded an IC50 of 620 nM.

On to `COc1ccccc1CC(=O)N1C[C@@H]2[C@]3(c4ccccc4)CC[C@@H](c4ccc(I)cc43)[C@]2(C(=O)O)C1` (relative stereo) [Example 43, (3aRS,4SR,9SR,9aRS)-4,9-ethano-7-iodo-2-(2-methoxyphenyl)acetyl-9-phenyl-2,3,3a,4,9,9a-hexahydro-1H-benzo[f]isoindole-3a-carboxylic acid], for which inhibition was half-maximal at 700 nM (IC50).

For `Cc1ccccc1CC(=O)N1C[C@@H]2[C@]3(c4ccccc4)CC[C@@H](c4ccccc43)[C@]2(C(=O)O)C1` (relative stereo) [Example 62, (3aRS,4SR,9SR,9aRS)-4,9-Ethano-2-(2-methylphenyl)acetyl-9-phenyl-2,3,3a,4,9,9a-hexahydro-1H-benzo[f]isoindole-3a-carboxylic acid], it took 1150 nM to reach half-maximal inhibition (IC50).

With `COc1ccccc1CC(=S)N1C[C@@H]2[C@]3(c4ccccc4)CC[C@@H](c4ccccc43)[C@]2(C(=O)O)C1` (relative stereo) [Example 65, (3aRS,4SR,9SR,9aRS)-4,9-Ethano-2-(2-methoxyphenyl)thioacetyl-9-phenyl-2,3,3a,4,9,9a-hexahydro-1H-benzo[f]isoindole-3a-carboxylic acid], the IC50 came out at 410 nM.

Staying with this test, now noted: human farnesyl transferase purified from THP1 cell cultures; p21 H-ras substrate; 20 minutes at 37° C.; 9 concentrations; read-out: in vitro inhibitory activity IC50.
`COc1ccccc1CC(=O)N1C[C@H]2[C@@]3(c4ccccc4)CC[C@H](c4ccccc43)[C@@]2(C(=O)NCCN(C)C)C1` (relative stereo) [Example 4, (3aRS, 4SR, 9SR, 9aRS)-N-(2-dimethylaminoethyl)-4,9-ethano-2-(2-methoxyphenyl)acetyl-9-phenyl-2,3,3a,4,9,9a-hexahydro-1H-benzo[f]isoindole-3a-carboxamide]: the IC50 is 9400 nM.

As to `CNCCNC(=O)[C@]12CN(C(=O)Cc3ccccc3OC)C[C@H]1[C@@]1(c3ccccc3)CC[C@@H]2c2ccccc21` (relative stereo) [Example 5, (3aRS, 4SR, 9SR, 9aRS)-N-(2-methylaminoethyl)-4,9-ethano-2-(2-methoxyphenyl)acetyl-9-phenyl-2,3,3a,4,9,9a-hexahydro-1H-benzo[f]isoindole-3a-carboxamide], the IC50 stood at 7000 nM.

As to `COc1ccccc1CC(=O)N1C[C@H]2[C@@]3(c4ccccc4)CC[C@H](c4ccccc43)[C@@]2(C(N)=O)C1` (relative stereo) [Example 3, (3aRS, 4SR, 9SR, 9aRS)-4,9-ethano-2-(2-methoxyphenyl)acetyl-9-phenyl-2,3,3a,4,9,9a-hexahydro-1H-benzo[f]isoindole-3a-carboxamide], the IC50 came out at 4700 nM.

Take `C=C(C(=O)N1C[C@H]2[C@@]3(c4ccccc4)CC[C@H](c4ccccc43)[C@@]2(C(=O)NCc2cccc(C(F)(F)F)c2)C1)c1ccccc1OC` [Example 89, (3aS,4R,9R,9aS)-N-[3-trifluorobenzyl]-4,9-ethano-2-[(2-methoxyphenyl)prop-2-en-1-oyl]-9-phenyl-2,3,3a,4,9,9a-hexahydro-1H-benzo[f]isoindole-3a-carboxamide]: the IC50 turned out to be 780 nM.

With `COc1ccccc1CC(=O)N1C[C@H]2[C@@]3(c4ccccc4)CC[C@H](c4ccccc43)[C@@]2(CP(=O)(O)O)C1` (relative stereo) [Example 23], the IC50 amounted to 2600 nM.

`COc1ccccc1CC(=O)N1C[C@@H]2[C@]3(c4ccccc4)CC[C@@H](c4ccccc43)[C@]2(C(=O)N(C)C)C1` (relative stereo) [Example 55, (3aRS,4SR,9SR,9aRS)-N,N-dimethyl-4,9-ethano-2-(2-methoxyphenyl)acetyl-9-phenyl-2,3,3a,4,9,9a-hexahydro-1H-benzo[f]isoindole-3a-carboxamide]: the IC50 turned out to be 3900 nM.

As to `COc1ccccc1CC(=O)N1C[C@H]2[C@@]3(c4ccccc4)CC[C@H](c4ccccc43)[C@@]2(C(=O)NC(CCC(=O)O)C(=O)O)C1` (some centres unmarked) [Example 7], the IC50 turned out to be 580 nM.

In the case of `C=C(C(=O)N1C[C@H]2[C@@]3(c4ccccc4)CC[C@H](c4ccccc43)[C@@]2(C(=O)N[C@H](CO)c2ccccc2)C1)c1ccccc1OC` [Example 85, (3aS,4R,9R,9aS)-N-[1-(S)-1-phenyl-2-hydroxyethyl]-4,9-ethano-2[-(2-methoxyphenyl)prop-2-en-1-oyl]-9-phenyl-2,3,3a,4,9,9a-hexahydro-1H-benzo[f]isoindole-3a-carboxamide], the IC50 came to 260 nM.

`C=C(C(=O)N1C[C@@H]2[C@]3(c4ccccc4)CC[C@@H](c4ccccc43)[C@]2(C(=O)NOC)C1)c1ccccc1OC` (racemic) [Example 44, (3aRS,4SR,9SR,9aRS)-N-methoxy-4,9-ethano-2-[2-(2-methoxyphenyl)prop-2-en-1-oyl]-9-phenyl-2,3,3a,4,9,9a-hexahydro-1H-benzo[f]isoindole-3a-carboxamide]: the IC50 was found to be 110 nM.

`COc1ccccc1CC(=O)N1C[C@H]2[C@@]3(c4ccccc4)CC[C@H](c4ccccc43)[C@@]2(NC=O)C1` (relative stereo) [Example 11, (3aRS, 4SR, 9SR, 9aRS)-3a-formylamino-4,9-ethano-2-(2-methoxyphenyl)acetyl-9-phenyl-2,3,3a,4,9,9a-hexahydro-1H-benzo[f]isoindole]: the IC50 came to 6950 nM.

For the compound `C=C(C(=O)N1C[C@H]2[C@@]3(c4ccccc4)CC[C@H](c4ccccc43)[C@@]2(C(=O)NCc2ccccc2OC)C1)c1ccccc1OC` [Example 82], the half-inhibitory concentration (IC50) came to 210 nM.

With `C=C(C(=O)N1C[C@H]2[C@@]3(c4ccccc4)CC[C@H](c4ccccc43)[C@@]2(C(=O)NCc2cccs2)C1)c1ccccc1OC` [Example 95, (3aS,4R,9R,9aS)-N-[(2-thienyl)-methyl]-4,9-ethano-2-[(2-methoxyphenyl)prop-2-en-1-oyl]-9-phenyl-2,3,3a,4,9,9a-hexahydro-1H-benzo[f]isoindole-3a-carboxamide], the IC50 was 270 nM.

In the case of `COc1ccccc1CC(=O)N1C[C@H]2[C@@]3(c4ccccc4)CC[C@H](c4ccccc43)[C@@]2(NC(=O)CCC(=O)O)C1` (relative stereo) [Example 17, (3aRS, 4SR, 9SR, 9aRS)-4,9-ethano-3a-(3-carboxypropionyl)amino-2-(2-methoxyphenyl)acetyl-9-phenyl-2,3,3a,4,9,9a-hexahydro-1H-benzo[f]isoindole], the IC50 was determined as 4900 nM.

On to `C=C(C(=O)N1C[C@H]2[C@@]3(c4ccccc4)CC[C@H](c4ccccc43)[C@@]2(C(=O)N[C@H](C(=O)O)c2ccccc2)C1)c1ccccc1OC` [Example 81, N-[(3aS,4R,9R,9aS)-4,9-ethano-2-[(2-methoxy-phenyl)prop-2-en-1-oyl]-9-phenyl-2,3,3a,4,9,9a-hexahydro-1H-benzo[f]isoindol-3a-ylcarboxamide]-(S)-phenylglycine], for which the IC50 was 50 nM.

With `CCCOc1ccccc1CC(=O)N1C[C@H]2[C@@]3(c4ccccc4)CC[C@H](c4ccccc43)[C@@]2(C(=O)O)C1` (relative stereo) [Example 80, (3aRS,4SR,9SR,9aRS)-4,9-ethano-9-phenyl-2-(2-n-propoxyphenyl)acetyl-2,3,3a,4,9,9a-hexahydro-1H-benzo[f]isoindole-3a-carboxylic acid], the IC50 is 800 nM.

As to `COc1ccccc1CC(=O)N1C[C@@H]2[C@]3(c4ccccc4)CC[C@@H](c4ccccc43)[C@]2(C(=O)NCCC(=O)O)C1` (relative stereo) [Example 50, N-[(3aRS,4SR,9SR,9aRS)-4,9-ethano-2-(2-methoxyphenyl)acetyl-9-phenyl-2,3,3a,4,9,9a-hexahydro-1H-benzo[f]isoindol-3a-yl]carbonyl-3-aminopropanoic acid], the IC50 was 1300 nM.

Regarding `C=C(C(=O)N1C[C@H]2[C@@]3(c4ccccc4)CC[C@H](c4ccccc43)[C@@]2(C(=O)NCc2cscn2)C1)c1ccccc1OC` [Example 96, (3aS,4R,9R,9aS)-N-[(4-thiazolyl)-methyl]-4,9-ethano-2-[(2-methoxyphenyl)prop-2-en-1-oyl]-9-phenyl-2,3,3a,4,9,9a-hexahydro-1H-benzo[f]isoindole-3a-carboxamide], the IC50 came out at 360 nM.

For `COc1ccccc1CC(=O)N1C[C@@H]2[C@]3(c4ccccc4)CC[C@@H](c4ccccc43)[C@]2(C(=O)NOCc2ccccc2)C1` (racemic) [Example 45, (3aRS,4SR,9SR,9aRS)-N-benzyloxy-4,9-ethano-2-(2-methoxyphenylacetyl)-9-phenyl-2,3,3a,4,9,9a-hexahydro-1H-benzo[f]isoindole-3a-carboxamide], the IC50 was determined as 1270 nM.

For orientation: IC50 means the concentration that inhibits the measured activity by half.
